System: 616215-338-R-J1-PDC complex spheroid viability
Assay: Anticancer human tumor 616215-338-R-J1-PDC patient-derived colon adenocarcinoma cell line growth inhibition [POLQ]
Conditions: for IC50: curve of first compound; for viability, T/C: stronger effect = lower value
Procedure, shortened: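 Three-cell-type spheroids modelling solid tumor plus stroma served as the readout system; POL inhibitors were tested individually and in combination, concentration ranges set by clinical Cmax where known.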

[1] = second compound 0.0316 µM, first compound 0.0316 µM
[2] = second compound 0.0316 µM, first compound 0.1 µM
[3] = second compound 0.0316 µM, first compound 0.316 µM
[4] = second compound 0.0316 µM, first compound 1 µM
[5] = second compound 0.0316 µM, first compound 3.16 µM
[6] = second compound 0.0316 µM, first compound 10 µM
[7] = second compound 0.1 µM, first compound 0.0316 µM
[8] = second compound 0.1 µM, first compound 0.1 µM
[9] = second compound 0.1 µM, first compound 0.316 µM
[10] = second compound 0.1 µM, first compound 1 µM
[11] = second compound 0.1 µM, first compound 3.16 µM
[12] = second compound 0.1 µM, first compound 10 µM
[13] = second compound 0.316 µM, first compound 0.0316 µM
[14] = second compound 0.316 µM, first compound 0.1 µM
[15] = second compound 0.316 µM, first compound 0.316 µM
[16] = second compound 0.316 µM, first compound 1 µM
[17] = second compound 0.316 µM, first compound 3.16 µM
[18] = second compound 0.316 µM, first compound 10 µM
[19] = second compound 1 µM, first compound 0.0316 µM
[20] = second compound 1 µM, first compound 0.1 µM
[21] = second compound 1 µM, first compound 0.316 µM
[22] = second compound 1 µM, first compound 1 µM
[23] = second compound 1 µM, first compound 3.16 µM
[24] = second compound 1 µM, first compound 10 µM
[25] = second compound 3.16 µM, first compound 0.0316 µM
[26] = second compound 3.16 µM, first compound 0.1 µM
[27] = second compound 3.16 µM, first compound 0.316 µM
[28] = second compound 3.16 µM, first compound 1 µM
[29] = second compound 3.16 µM, first compound 3.16 µM
[30] = second compound 3.16 µM, first compound 10 µM
[31] = second compound 10 µM, first compound 0.0316 µM
[32] = second compound 10 µM, first compound 0.1 µM
[33] = second compound 10 µM, first compound 0.316 µM
[34] = second compound 10 µM, first compound 1 µM
[35] = second compound 10 µM, first compound 3.16 µM
[36] = second compound 10 µM, first compound 10 µM
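Note: spheroids exposed to compounds for one week before readout.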
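Throughout, for viability, T/C: percent viability relative to DMSO vehicle wells taken as 100%.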

C#Cc1c(F)ccc2cc(O)cc(-c3ncc4c(N5CC6CCC(C5)N6)nc(OCC56CCCN5CC(F)C6)nc4c3F)c12 (centres undefined) + Cc1cccc(N(C)C(=O)C2C(O)CCN2c2nc(C)cc(C(F)(F)F)c2C#N)c1
IC50 (second compound 0.0316 µM): > 10 µM
IC50 (second compound 0.1 µM): > 10 µM
IC50 (second compound 0.316 µM): > 10 µM
IC50 (second compound 1 µM): > 10 µM
IC50 (second compound 3.16 µM): > 10 µM
IC50 (second compound 10 µM): > 10 µM
viability, T/C [1]: 88.6%
viability, T/C [2]: 109%
viability, T/C [3]: 94.2%
viability, T/C [4]: 101%
viability, T/C [5]: 113%
viability, T/C [6]: 71.8%
viability, T/C [7]: 101%
viability, T/C [8]: 110%
viability, T/C [9]: 103%
viability, T/C [10]: 109%
viability, T/C [11]: 103%
viability, T/C [12]: 73.9%
viability, T/C [13]: 99.8%
viability, T/C [14]: 101%
viability, T/C [15]: 98.1%
viability, T/C [16]: 99.6%
viability, T/C [17]: 91.8%
viability, T/C [18]: 69.8%
viability, T/C [19]: 103%
viability, T/C [20]: 107%
viability, T/C [21]: 94.9%
viability, T/C [22]: 108%
viability, T/C [23]: 104%
viability, T/C [24]: 64.3%
viability, T/C [25]: 104%
viability, T/C [26]: 99.2%
viability, T/C [27]: 101%
viability, T/C [28]: 101%
viability, T/C [29]: 103%
viability, T/C [30]: 66.7%
viability, T/C [31]: 101%
viability, T/C [32]: 101%
viability, T/C [33]: 108%
viability, T/C [34]: 96.3%
viability, T/C [35]: 73.9%
viability, T/C [36]: 67.8%

CC1COCCN1c1cc(C2(O)CC3CCC(C2)O3)c2cnn(-c3ccn[nH]3)c2n1 (centres undefined) + Cc1cccc(N(C)C(=O)C2C(O)CCN2c2nc(C)cc(C(F)(F)F)c2C#N)c1
IC50 (second compound 0.0316 µM): 3.91 µM
IC50 (second compound 0.1 µM): 2.95 µM
IC50 (second compound 0.316 µM): 2.75 µM
IC50 (second compound 1 µM): 3.78 µM
IC50 (second compound 3.16 µM): 4.3 µM
IC50 (second compound 10 µM): 1.4 µM
viability, T/C [1]: 98.1%
viability, T/C [2]: 102%
viability, T/C [3]: 76.6%
viability, T/C [4]: 65.3%
viability, T/C [5]: 56.2%
viability, T/C [6]: 38.9%
viability, T/C [7]: 101%
viability, T/C [8]: 99.1%
viability, T/C [9]: 76.2%
viability, T/C [10]: 71.7%
viability, T/C [11]: 46.5%
viability, T/C [12]: 33.6%
viability, T/C [13]: 106%
viability, T/C [14]: 103%
viability, T/C [15]: 74.9%
viability, T/C [16]: 61.4%
viability, T/C [17]: 53.5%
viability, T/C [18]: 33.6%
viability, T/C [19]: 105%
viability, T/C [20]: 94.7%
viability, T/C [21]: 74.2%
viability, T/C [22]: 70%
viability, T/C [23]: 57.9%
viability, T/C [24]: 33%
viability, T/C [25]: 106%
viability, T/C [26]: 92%
viability, T/C [27]: 71.1%
viability, T/C [28]: 71.8%
viability, T/C [29]: 58.1%
viability, T/C [30]: 36.6%
viability, T/C [31]: 105%
viability, T/C [32]: 94.6%
viability, T/C [33]: 68.8%
viability, T/C [34]: 53.4%
viability, T/C [35]: 44%
viability, T/C [36]: 30.8%

From PubChem BioAssay AID1963843 (Molecular Pharmacology Branch, DTP, NCI, 2024)
